Results: ChEMBL document CHEMBL4145446, “Development of tacrine-bifendate conjugates with improved cholinesterase inhibitory and pro-cognitive efficacy and reduced hepatotoxicity” (Eur J Med Chem, 2018)
The source made the active and inactive calls. The rule behind the calls is not given here.

Assays:
[1] = target: Amyloid-beta precursor protein (Homo sapiens) (UniProt P05067); assay: Inhibition of human self-induced amyloid beta (1 to 42) aggregation at 20 uM after 48 hrs by uranyl acetate staining based TEM analysis
Chain of Amyloid-beta precursor protein (Homo sapiens) (P05067 whole entry): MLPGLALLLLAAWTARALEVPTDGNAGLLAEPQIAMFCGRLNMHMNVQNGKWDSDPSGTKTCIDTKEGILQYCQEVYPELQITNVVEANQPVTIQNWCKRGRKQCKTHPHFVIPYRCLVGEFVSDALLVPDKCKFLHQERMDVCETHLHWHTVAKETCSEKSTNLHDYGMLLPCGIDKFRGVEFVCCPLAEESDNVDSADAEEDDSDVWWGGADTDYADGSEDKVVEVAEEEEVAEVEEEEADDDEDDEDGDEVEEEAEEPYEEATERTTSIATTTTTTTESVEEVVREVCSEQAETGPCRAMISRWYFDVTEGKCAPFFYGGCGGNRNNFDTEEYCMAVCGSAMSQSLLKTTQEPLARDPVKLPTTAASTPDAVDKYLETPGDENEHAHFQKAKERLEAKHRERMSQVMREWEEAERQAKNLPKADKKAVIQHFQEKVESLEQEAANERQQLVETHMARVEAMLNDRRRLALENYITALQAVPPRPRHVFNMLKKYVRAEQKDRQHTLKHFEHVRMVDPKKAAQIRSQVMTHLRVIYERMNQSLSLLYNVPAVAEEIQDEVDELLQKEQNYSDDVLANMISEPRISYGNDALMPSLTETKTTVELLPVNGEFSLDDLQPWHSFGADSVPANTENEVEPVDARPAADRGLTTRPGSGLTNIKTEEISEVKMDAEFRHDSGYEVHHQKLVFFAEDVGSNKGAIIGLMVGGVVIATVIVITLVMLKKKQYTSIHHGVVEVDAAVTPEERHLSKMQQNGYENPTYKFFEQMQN

[2] = Cytotoxicity against rat PC12 cells assessed as inhibition of cell viability at 10 uM by MTT assay relative to control; format: cell-based, PC-12; conditions: read-out: INH
[3] = Cytotoxicity against human HepG2 cells assessed as inhibition of cell viability at 50 uM by MTT assay relative to control; format: cell-based; conditions: read-out: INH
Acetylcholinesterase = Acetylcholinesterase (Electrophorus electricus, UniProt O42275); assay: Inhibition of electric eel AChE using acetylthiocholine chloride as substrate preincubated for 15 mins followed by substrate addition measured every minute by Ellman's method
Chain of Acetylcholinesterase (O42275 whole entry): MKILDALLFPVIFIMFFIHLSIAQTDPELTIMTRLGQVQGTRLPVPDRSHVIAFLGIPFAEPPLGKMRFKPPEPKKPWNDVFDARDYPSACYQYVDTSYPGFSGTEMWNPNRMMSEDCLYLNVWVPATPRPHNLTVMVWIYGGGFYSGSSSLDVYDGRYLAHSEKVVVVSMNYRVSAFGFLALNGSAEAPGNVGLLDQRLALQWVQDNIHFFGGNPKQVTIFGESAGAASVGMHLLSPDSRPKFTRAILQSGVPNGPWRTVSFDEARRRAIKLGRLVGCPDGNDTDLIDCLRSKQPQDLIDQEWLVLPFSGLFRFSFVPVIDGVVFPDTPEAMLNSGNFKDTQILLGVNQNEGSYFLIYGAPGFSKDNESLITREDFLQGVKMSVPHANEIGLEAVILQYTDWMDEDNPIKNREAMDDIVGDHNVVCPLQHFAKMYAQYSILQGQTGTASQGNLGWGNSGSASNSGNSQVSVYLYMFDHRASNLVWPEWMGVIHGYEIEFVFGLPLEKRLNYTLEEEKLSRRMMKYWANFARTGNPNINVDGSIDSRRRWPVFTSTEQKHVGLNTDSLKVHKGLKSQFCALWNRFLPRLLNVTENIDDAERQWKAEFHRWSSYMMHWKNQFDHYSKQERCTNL

[4] = Cytotoxicity against human HepG2 cells assessed as inhibition of cell viability at 10 uM by MTT assay relative to control; format: cell-based; conditions: read-out: INH
Cholinesterase = Cholinesterase (Equus caballus, UniProt P81908); assay: Inhibition of equine serum BuChE using butyrylthiocholine chloride as substrate preincubated for 15 mins followed by substrate addition measured every minute by Ellman's method
Chain of Cholinesterase (P81908 whole entry): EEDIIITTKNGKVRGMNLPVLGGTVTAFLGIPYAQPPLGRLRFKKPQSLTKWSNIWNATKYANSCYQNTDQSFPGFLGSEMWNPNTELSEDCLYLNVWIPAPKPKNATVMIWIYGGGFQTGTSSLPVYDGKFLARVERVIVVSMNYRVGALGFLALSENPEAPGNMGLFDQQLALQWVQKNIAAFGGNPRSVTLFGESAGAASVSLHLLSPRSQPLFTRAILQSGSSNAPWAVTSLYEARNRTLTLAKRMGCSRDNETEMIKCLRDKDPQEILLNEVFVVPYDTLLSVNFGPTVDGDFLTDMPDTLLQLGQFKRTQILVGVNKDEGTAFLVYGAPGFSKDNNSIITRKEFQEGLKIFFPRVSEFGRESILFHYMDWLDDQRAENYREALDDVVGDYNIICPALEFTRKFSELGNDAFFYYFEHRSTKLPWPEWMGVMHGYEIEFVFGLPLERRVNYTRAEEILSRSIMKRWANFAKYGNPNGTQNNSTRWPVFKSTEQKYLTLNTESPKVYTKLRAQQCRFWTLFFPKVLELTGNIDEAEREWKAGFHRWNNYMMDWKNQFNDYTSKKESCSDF

[5] = Cytotoxicity against rat PC12 cells assessed as inhibition of cell viability at 50 uM by MTT assay relative to control; format: cell-based, PC-12; conditions: read-out: INH
[6] = Cytotoxicity against rat PC12 cells assessed as inhibition of cell viability at 1 uM by MTT assay relative to control; format: cell-based, PC-12; conditions: read-out: INH
[7] = Cytotoxicity against human HepG2 cells assessed as inhibition of cell viability at 1 uM by MTT assay relative to control; format: cell-based; conditions: read-out: INH
Mus musculus [8] = assay: Hepatotoxicity in Kunming mouse assessed as inflammatory cell infiltration in liver at 35 mg/kg, ig cotreated with THA after 48 hrs by H and E staining based assay; format: toxicity, organism-based; conditions: in vivo, po
Mus musculus [9] = assay: Hepatotoxicity in Kunming mouse assessed as serum ASAT level at 106 mg/kg, ig cotreated with THA after 48 hrs by colorimetric method (reference value: 101.5 +/- 22.3 U/L); format: toxicity, organism-based; conditions: in vivo, po
Mus musculus [10] = assay: Hepatotoxicity in Kunming mouse assessed as serum ALT level at 106 mg/kg, ig cotreated with THA after 48 hrs by colorimetric method (reference value: 42.7 +/- 6.3 U/L); format: toxicity, organism-based; conditions: in vivo, po
[11] = target: Acetylcholinesterase (Electrophorus electricus) (UniProt O42275); assay: Inhibition of electric eel AChE at 50 uM using acetylthiocholine chloride as substrate preincubated for 15 mins followed by substrate addition measured every minute by Ellman's method
Chain of Acetylcholinesterase (Electrophorus electricus) (O42275 24-633 limits assumed): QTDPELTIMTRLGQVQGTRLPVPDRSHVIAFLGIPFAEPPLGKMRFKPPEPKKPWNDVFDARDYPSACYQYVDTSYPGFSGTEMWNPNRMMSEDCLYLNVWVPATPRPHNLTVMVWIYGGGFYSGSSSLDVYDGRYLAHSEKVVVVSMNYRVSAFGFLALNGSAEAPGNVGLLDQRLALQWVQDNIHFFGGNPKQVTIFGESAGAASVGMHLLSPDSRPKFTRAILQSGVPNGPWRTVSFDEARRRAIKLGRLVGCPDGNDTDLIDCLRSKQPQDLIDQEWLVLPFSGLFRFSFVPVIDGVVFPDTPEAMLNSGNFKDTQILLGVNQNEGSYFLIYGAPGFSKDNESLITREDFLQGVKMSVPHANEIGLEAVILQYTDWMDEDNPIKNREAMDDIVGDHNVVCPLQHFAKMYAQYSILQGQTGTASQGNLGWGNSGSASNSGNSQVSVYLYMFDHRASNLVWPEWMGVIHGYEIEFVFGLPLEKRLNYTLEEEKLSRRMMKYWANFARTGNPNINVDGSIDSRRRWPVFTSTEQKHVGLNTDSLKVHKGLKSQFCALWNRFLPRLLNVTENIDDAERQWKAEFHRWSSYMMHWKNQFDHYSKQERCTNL

[12] = target: Cholinesterase (Equus caballus) (UniProt P81908); assay: Inhibition of equine serum BuChE at 50 uM using butyrylthiocholine chloride as substrate preincubated for 15 mins followed by substrate addition measured every minute by Ellman's method
Chain of Cholinesterase (Equus caballus) (P81908 whole entry): as the sequence (P81908 whole entry) above

Mus musculus [13] = assay: Hepatotoxicity in Kunming mouse assessed as serum ALT level at 106 mg/kg, ig after 48 hrs by colorimetric method (reference value: 42.7 +/- 6.3 U/L); format: toxicity, organism-based; conditions: in vivo, po
Mus musculus [14] = assay: Hepatotoxicity in Kunming mouse assessed as serum ASAT level at 106 mg/kg, ig after 48 hrs by colorimetric method (reference value: 101.5 +/- 22.3 U/L); format: toxicity, organism-based; conditions: in vivo, po
Mus musculus [15] = assay: Hepatotoxicity in Kunming mouse assessed as histomorphological changes in liver at 106 mg/kg, ig after 48 hrs by H and E staining based assay; format: toxicity, organism-based; conditions: in vivo, po
[16] = target: Acetylcholinesterase (Electrophorus electricus) (UniProt O42275); assay: Mixed-type inhibition of electric eel AChE at 25 to 100 nM using acetylthiocholine chloride as substrate preincubated for 15 mins followed by substrate addition by Lineweaver-Burk plot analysis
Mus musculus [17] = assay: Hepatotoxicity in Kunming mouse assessed as increase in serum ASAT level at 106 mg/kg, ig after 48 hrs by colorimetric method relative to control; format: toxicity, organism-based; conditions: in vivo, po
L02 [18] = assay: Cytotoxicity against human HL7702 cells assessed as reduction in cell viability at 1 to 10 uM by MTT assay; format: cell-based; conditions: l02, 10 µM
Mus musculus [19] = assay: Cognition enhancing effect in ICR mouse model of scopalamine-induced memory impairment assessed as improvement in target quadrant preference at 20 umol equiv/kg, po pretreated for 30 mins followed by scopalamine treatment measured on day 15 by Morris water maze test; format: functional, organism-based
Mus musculus [20] = assay: Hepatotoxicity in Kunming mouse assessed as increase in serum ALT level at 106 mg/kg, ig after 48 hrs by colorimetric method relative to control; format: toxicity, organism-based; conditions: in vivo, po
Mus musculus [21] = assay: Effect on spatial memory performance in ICR mouse model of scopalamine-induced memory impairment assessed as swimming speed at 20 umol equiv/kg, po pretreated for 30 mins followed by scopalamine treatment measured for 90 secs by Morris water maze test; format: ADME, organism-based; conditions: 0.025 h
Mus musculus [22] = assay: Effect on spatial memory performance in ICR mouse model of scopalamine-induced memory impairment assessed as total distance travelled at 20 umol equiv/kg, po pretreated for 30 mins followed by scopalamine treatment measured for 90 secs by Morris water maze test; format: ADME, organism-based; conditions: 0.025 h
L02 [23] = assay: Induction of apoptosis in human HL7702 cells at 10 uM in presence of PI3K inhibitor LY294002 by FITC staining based flow cytometry relative to control; format: cell-based; conditions: l02, 10 µM

COc1cc(/C=C/C(=O)CC(=O)/C=C/c2ccc(O)c(OC)c2)ccc1O
inhibition [1]: Active

COC(=O)c1cc(OC)c2c(c1-c1c(C(=O)NCCCCCCNc3c4c(nc5ccccc35)CCCC4)cc(OC)c3c1OCO3)OCO2
cytotoxicity at 10 µM [2]: < 5%
cytotoxicity at 50 µM [3]: 34.4%
IC50 (Acetylcholinesterase): 616 nM
cytotoxicity at 10 µM [4]: < 5%
IC50 (Cholinesterase): 4.02 nM
cytotoxicity at 50 µM [5]: 27.3%
cytotoxicity at 1 µM [6]: 5.26%
cytotoxicity at 1 µM [7]: < 5%

COC(=O)c1cc(OC)c2c(c1-c1c(C(=O)OC)cc(OC)c3c1OCO3)OCO2 [BIFENDATE]
Activity (Mus musculus [8]): Non-Toxic
cytotoxicity at 10 µM [2]: < 5%
cytotoxicity at 50 µM [3]: 11.6%
Activity (Mus musculus [9]): 110 U/L
Activity (Mus musculus [10]): 41.9 U/L
IC50 (Acetylcholinesterase): > 50000 nM
cytotoxicity at 10 µM [4]: 8.45%
inhibition [11]: inactive
IC50 (Cholinesterase): > 50000 nM
inhibition [12]: inactive
cytotoxicity at 50 µM [5]: 7.21%
Activity (Mus musculus [13]): 39.3 U/L
Activity (Mus musculus [14]): 105 U/L
cytotoxicity at 1 µM [6]: < 5%
cytotoxicity at 1 µM [7]: < 5%
Activity (Mus musculus [15]): Non-Toxic

COC(=O)c1cc(OC)c2c(c1-c1c(C(=O)NCCCCCCCCCCNc3c4c(nc5ccccc35)CCCC4)cc(OC)c3c1OCO3)OCO2
inhibition [16]: Active
cytotoxicity at 10 µM [2]: < 5%
cytotoxicity at 50 µM [3]: 23.1%
fold change (FC) (Mus musculus [17]): 1.1
Activity (L02 [18]): Non-Toxic
IC50 (Acetylcholinesterase): 27.3 nM
Activity (Mus musculus [19]): Active
cytotoxicity at 10 µM [4]: 10.8%
inhibition [1]: Active
IC50 (Cholinesterase): 8.63 nM
fold change (FC) (Mus musculus [20]): 1.1
Activity (Mus musculus [21]): Non-Toxic
cytotoxicity at 50 µM [5]: 7.84%
cytotoxicity at 1 µM [6]: < 5%
Activity (Mus musculus [22]): Non-Toxic
cytotoxicity at 1 µM [7]: 6.71%
Activity (L02 [23]): 14.1%
Activity (Mus musculus [15]): Non-Toxic

COC(=O)c1cc(OC)c2c(c1-c1c(C(=O)NCCCCCCCCNc3c4c(nc5ccccc35)CCCC4)cc(OC)c3c1OCO3)OCO2
cytotoxicity at 10 µM [2]: < 5%
cytotoxicity at 50 µM [3]: 51.9%
IC50 (Acetylcholinesterase): 945 nM
cytotoxicity at 10 µM [4]: 9.53%
IC50 (Cholinesterase): 6.5 nM
cytotoxicity at 50 µM [5]: 38.9%
cytotoxicity at 1 µM [6]: < 5%
cytotoxicity at 1 µM [7]: 5.81%

COC(=O)c1cc(OC)c2c(c1-c1c(C(=O)NCCCCNc3c4c(nc5ccccc35)CCCC4)cc(OC)c3c1OCO3)OCO2
cytotoxicity at 10 µM [2]: < 5%
cytotoxicity at 50 µM [3]: 19.5%
IC50 (Acetylcholinesterase): 923 nM
cytotoxicity at 10 µM [4]: 11.9%
IC50 (Cholinesterase): 75.5 nM
cytotoxicity at 50 µM [5]: 19.3%
cytotoxicity at 1 µM [6]: < 5%
cytotoxicity at 1 µM [7]: < 5%

COC(=O)c1cc(OC)c2c(c1-c1c(C(=O)NCCCCCCCCCCCCNc3c4c(nc5ccccc35)CCCC4)cc(OC)c3c1OCO3)OCO2
cytotoxicity at 10 µM [2]: < 5%
cytotoxicity at 50 µM [3]: 46.1%
IC50 (Acetylcholinesterase): 52.1 nM
cytotoxicity at 10 µM [4]: 13.8%
IC50 (Cholinesterase): 35.3 nM
cytotoxicity at 50 µM [5]: 7.76%
cytotoxicity at 1 µM [6]: < 5%
cytotoxicity at 1 µM [7]: 7.35%
